{"source": "patent US20230181564A1", "about": "“Potent Tetrahydroquinolone Eliminates Apicomplexan Parasites” (The University of Chicago, priority 2020, published 2023)", "key": {"[1]": {"system": "Human Foreskin Fibroblast (HFF)", "test": "Cytotoxicity assay with WST-1 on HFF", "assay_type": "cell-based", "conditions": "for Toxicity* (highest concentration tested that does not show toxicity to HFF): WST assay, second value of cell", "method": "(§1) PBS Sol/Toxicity pH7.4 refers to solubility of the compound in Phosphate Buffered Saline (PBS) at pH7.4. […] Tachy/Brady IC50 was determined in studies in which cultures of parasites in HFF were treated with varying concentrations of the compound and there was 50% inhibition of the replication (number) of parasites. Parasites were RH-YFP expressing tachyzoites (Tachy) and EGS (Brady) strains. Studies of effects of inhibitors on HFF or on T.gondii tachyzoites were performed with triplicate wells in at least two biological replicate experiments. Studies of effects on bradyzoites were performed at least twice in at least two biological replicate experiments. Compounds with much less inhibition of mammalian than T. gondii cytochrome bc in the saffarine enzyme assay (indicated by **) provide potential to further develop compounds, if unanticipated toxicity occurs from JAG21.\nCytotoxicity Assays in parallel with RH Strain T.gondii in vitro studies. Toxicity assays used WST-1 cell proliferation reagent (Roche) as in Fomovska et al. (2012). HFF were grown on a flat, clear-bottomed, black 96-well plate. Confluent HFF were treated with inhibitory compounds at concentrations of 10 μM and 50 μM. Compounds were diluted in IMDM-C, and 20 μL were added to each designated well, with triplicates for each condition. A gradient with 2 fold-decreasing concentrations of DMSO from 10% to 0% in colorless, translucent IMDM-C was used as a control. The plate was incubated for 72 hours at 37° C. 10 μL WST-1 reagent (Roche) were added to each well. Cells were incubated for 30-60 minutes. Absorbance was read using a fluorimeter at 420 nm. A higher degree of color change (and absorbance) indicated mitochondrial activity and cell viability.\nBecause T. gondii grows inside cells, if a compound were toxic to host HFF then it would make the compound appear to be spuriously effective (Fomovska et al. 2012; Fomovska et al. 2012a), when in actuality only toxicity for the host cell would be measured. Cytotoxicity to HFF was therefore assessed for all compounds at 10 μM. Results of this experiment are in Table 1, toxicity column. A two-way ANOVA and subsequent pairwise comparison found none of the differences in absorbance, compared to the media-DMSO vehicle controls, to be statistically significant (p>0.05). Most of these compounds are not toxic at 10 μM (the limit of solubility) and that cytotoxicity to cells can be attributed to DMSO in the solution, not the compound."}, "[2]": {"system": "T. gondii mitochondrial membrane potential (cytochrome bc)", "test": "Mitochondrial membrane potential by the safranine method (T. gondii, compared with HFF)", "assay_type": "cell-based, Toxoplasma gondii", "conditions": "for Effect on T. gondii mitochondrial membrane potential: doses as high as 4 μM", "method": "T.gondii and HFF Mitochondrial Membrane Potential Measurements—the mitochondrial membrane potential was measured by the safranine method according to Vercesi et al, 1998). Freshly egressed T. gondii tachyzoites were filtered and washed twice with intracellular buffer (125 mM sucrose, 65 mM KCl, 10 mM HEPES-KOH buffer, pH 7.2, 1 mM MgCl2 and 2.5 mM potassium phosphate). After washing, the parasites were resuspended in the same buffer at 10^9/ml. An aliquot of 50 μL of this suspension was added to a cuvette containing Safranin 0, 2.5 μM and Succinate 1 mM in final volume of 2 mL of the intracellular buffer. The fluorescence was measured with a Hitachi 7000 spectrofluorometer with setting Ex. 495/Em. 586. Once the baseline fluorescence is testable, 30 μM digitonin was added to permeabilize the parasites. 85 seconds after permeabilization, the THQ derivatives, dissolved in DMSO, were added. 5 μM of FCCP (Carbonyl cyanide-4-(trifluoromethoxy) phenylhydrazone) was used as an uncoupler reference for calculations and its effect was considered 100%. Similar conditions for measuring the mitochondrial potential of mammalian cells were used with the following changes: the mammalian cells were re-suspended at 10^8/ml. 50 μl of mammalian cells was also used for each run in a cuvette with […]. The substrate used for mammalian cells was 5 mM glutamate and 5 mM malate. A higher concentration of digitonin (50 μM) was used to permeabilize the mammalian cells. The compounds were added at about 400 seconds after permeabilization. Each experiment was repeated at least three times in duplicates. Statistical analysis, unpaired student t test, was performed using GraphPad Prism 8.0 (GraphPad Software, Inc., San Diego, Calif.).\nMitochondrial membrane potential measurements were performed with permeabilized T.gondii tachyzoites in suspension using safranin O, which loads into polarized membranes. T. gondii tachyzoites were permeabilized with digitonin to allow the mitochondrial substrate succinate to cross the membrane and energize the mitochondrion. The fluorescence of safranin O, which loads into energized mitochondria was used to measure the membrane potential. The energized state of the mitochondrion is observed by a decrease in fluorescence (FIGS. 3A,C,E). Trifluoromethoxy carbonylcyanide phenylhydrazone (FCCP) was used to depolarize the membrane, which causes the fluorescence to go up as shown in FIG. 3A. JAG21 depolarized the membrane potential even at concentrations as low as 2 nM (FIG. 3C,D). JAG21 and Atovaquone had similar effects on the mitochondrial membrane potential (FIG. 3D). […] The effect of these THQ compounds against the T. gondii mitochondrial membrane potential was greater than the effect on the human foreskin fibroblast membrane potential (FIG. 3E,F). […]"}, "[3]": {"test": "Kinetic/aqueous solubility in PBS pH 7.4", "assay_type": "physicochemical", "conditions": "for solubility: amorphous compounds; for PBS Sol pH7.4: solubility in Phosphate Buffered Saline pH 7.4, first value of cell", "method": "PBS Sol/Toxicity pH7.4 refers to solubility of the compound in Phosphate Buffered Saline (PBS) at pH7.4. […] Parasites were RH-YFP expressing tachyzoites (Tachy) and EGS (Brady) strains. Studies of effects of inhibitors on HFF or on T.gondii tachyzoites were performed with triplicate wells in at least two biological replicate experiments. Studies of effects on bradyzoites were performed at least twice in at least two biological replicate experiments. Compounds with much less inhibition of mammalian than T. gondii cytochrome bc in the saffarine enzyme assay (indicated by **) provide potential to further develop compounds, if unanticipated toxicity occurs from JAG21.\n(§2) Structure Activity Relationship (SAR) and comparison of effect on T.gondii and HFF enzyme activity. […] The MDCK-MDR1 Permeability Assay was also performed. […] These were measured by Chem Partners."}, "[4]": {"target": "T1, P. falciparum bc1 complex cytochrome c reductase (Pfbc1) (Plasmodium falciparum, UniProt Q02768)", "T1 construct": "Parasite extract was then prepared by disruption with a sonicating probe; endogenous in cells; host or cells: P. falciparum 3D7 blood-stage parasites freed by saponin, sonicated extract", "T1 sequence (Q02768 1-376)": "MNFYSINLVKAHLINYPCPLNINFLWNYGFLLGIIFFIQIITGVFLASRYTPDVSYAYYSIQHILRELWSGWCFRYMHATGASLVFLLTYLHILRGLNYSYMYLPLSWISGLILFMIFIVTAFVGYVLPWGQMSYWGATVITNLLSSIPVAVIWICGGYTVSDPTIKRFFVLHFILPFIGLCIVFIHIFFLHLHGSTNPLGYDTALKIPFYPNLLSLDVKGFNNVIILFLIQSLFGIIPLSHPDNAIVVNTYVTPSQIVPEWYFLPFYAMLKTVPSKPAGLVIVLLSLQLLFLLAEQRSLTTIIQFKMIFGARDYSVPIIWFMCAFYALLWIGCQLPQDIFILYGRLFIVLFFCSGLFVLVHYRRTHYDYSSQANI", "test": "Pfbc1 native assay (cytochrome c reduction by parasite extract)", "assay_type": "biochemical", "conditions": "atovaquone 1 μM positive control, mean±S.D., N=4", "method": "Enzyme assays. P. falciparum 3D7 strain were obtained from the Liverpool School of Tropical Medicine. Protease cocktail inhibitor was obtained from Roche. Bradford protein assay dye reagent was obtained from Bio-Rad. All other reagents were obtained from Sigma-Aldrich. Decylubiquinol was produced as per Fisher et al. (2009). In brief, 25 mg of decylubiquinone were dissolved in 400 μl of nitrogen-saturated hexane. An equal volume of aqueous 1 M sodium dithionite was added, and the mixture vortexed until colorless. […] Concentrations of decylubiquinol was determined spectrophotometrically on a Cary 300 Bio UV/visible spectrophotometer (Varian, UK) from absolute spectra, using ε288-320=8.1 mM-1·cm^−1. […]\nThe protocol for the preparation of parasite extract was adapted from Fisher et al. Free parasites were prepared from infected erythrocytes pooled from five T75 flasks, by adding 5 volumes of 0.15% (w/v) saponin in phosphate-buffered saline (137 mM NaCl, 2.7 mM KCl, 1.76 mM K2HPO4, 8.0 mM Na2HPO4, 5.5 mM D-glucose, pH 7.4) for 5 min, followed by three washes by centrifugation in RPMI containing HEPES (25 mM), and a final resuspension in potassium phosphate buffer (50 mM K2HPO4, 50 mM KH2PO4, 2 mM EDTA, pH7.4) containing a protease inhibitor cocktail (Complete Mini; Roche). […] The protein concentration of the parasite extract was determined by Bradford protein assay (Bio-Rad). […]"}, "[5]": {"system": "P-glycoprotein (MDR1, ABCB1)", "test": "in vitro", "assay_type": "in vitro ADME, canine", "conditions": "dog, MDCK-MDR1", "method": "as §2"}, "[6]": {"test": "Metabolic stability in mouse liver microsomes", "assay_type": "in vitro ADME", "conditions": "predicted half-life in mouse liver microsomes; no unit in table (101 minutes for JAG021)"}, "[7]": {"system": "T. gondii RH-YFP tachyzoites", "test": "In vitro challenge assay, RH strain YFP tachyzoites in HFF", "assay_type": "cell-based, Toxoplasma gondii", "conditions": "requires hepatic metabolism", "method": "as §1\nRH strain YFP Tachyzoites. Protocol was adapted from Fomovska et al. (2012; 2012a) for HFF. […] RH-YFP, lysed from host cells by passing twice through a 27-gauge needle, were counted, then diluted to 32,000/mL in IMDM-C. […] Plates were read using a fluorimeter (Synergy H4 Hybrid Reader, BioTek) to ascertain amount of relative fluorescence units (RFU) YFP, to measure parasite burden after treatment. Data were collected using Gen5 software with IC50 calculated by graphical analysis in Excel. […]"}}}
{"smiles": "Cc1[nH]c2c(c(=O)c1-c1ccc(Oc3ccc(C(=O)O)cc3)cc1)CCCC2", "note": "[JAG046]", "values": [{"measurement": "Toxicity* (highest concentration tested that does not show toxicity to HFF)", "setting": "[1]", "value": "ND/5 μM"}, {"measurement": "Effect on T. gondii mitochondrial membrane potential", "setting": "[2]", "value": "almost no effect"}]}
{"smiles": "Cc1[nH]c2c(c(=O)c1-c1ccc(Oc3cccc(C(=O)O)c3)cc1)CCCC2", "note": "[JAG047]", "values": [{"measurement": "Toxicity* (highest concentration tested that does not show toxicity to HFF)", "setting": "[1]", "value": "ND/5 μM"}, {"measurement": "Effect on T. gondii mitochondrial membrane potential", "setting": "[2]", "value": "almost no effect"}]}
{"smiles": "Cc1[nH]c2c(c(=O)c1-c1ccc(Oc3ccc(Cl)cc3)cc1)CCCC2", "note": "[JAG050]", "values": [{"measurement": "solubility", "setting": "[3]", "value": 16, "unit": "µM"}, {"measurement": "PBS Sol pH7.4", "setting": "[3]", "value": 16.41, "unit": "μM"}, {"measurement": "Toxicity to human cells in the in vitro model (HFF)", "setting": "[1]", "value": "not toxic"}, {"measurement": "Concentration depolarizing the T. gondii mitochondrial membrane potential", "setting": "[2]; permeabilized tachyzoites, safranin O", "value": "≥ 200", "unit": "nM"}]}
{"smiles": "O=c1c2c([nH]c(CO)c1-c1ccc(Oc3ccc(OC(F)(F)F)cc3)cc1)CCCC2", "note": "[JAG099]", "values": [{"measurement": "PBS Sol pH7.4", "setting": "[3]", "value": 4.05, "unit": "μM"}, {"measurement": "inhibition at 1 µM", "setting": "[4]", "value": "81.3 ± 6", "unit": "%"}]}
{"smiles": "Cc1[nH]c2c(c(=O)c1-c1ccc(Oc3ccccc3)cc1)CCCC2", "note": "[MJM170]", "values": [{"measurement": "Papp", "setting": "[5]", "value": "> 10", "unit": "×10⁻⁶ cm/s"}, {"measurement": "efflux ratio", "setting": "[5]", "value": "< 1.5"}, {"measurement": "solubility", "setting": "[3]; phosphate buffered saline, pH 7.4, aqueous buffer, kinetic from dmso stock", "value": 2, "unit": "µM"}, {"measurement": "PBS Sol pH7.4", "setting": "[3]", "value": 1.97, "unit": "μM"}, {"measurement": "T1/2 (M)", "setting": "[6]", "value": 20.97}]}
{"smiles": "COc1cc(C)c2c(Oc3cccc(C(F)(F)F)c3)c(OC)cc(NC(C)CCCN)c2n1", "note": "(stereo not shown) [Tafenoquine]", "values": [{"measurement": "Activity in tissue culture", "setting": "[7]", "value": "not active"}]}
